{"source": "patent EP3248604A1", "about": "“AGENTS FOR MODULATION OF WNT-TCF SIGNALLING AND USES THEREOF” (UNIVERSITE DE GENEVE, priority 2016, dated 2017)", "key": {"CC14 cells [1]": {"tested_on": "CC14 cells", "experiment": "Live imaging cell proliferation (growth curves)", "assay_type": "cell-based, human", "conditions": "150 nM, vs DMSO", "procedure": "Primary colon cells CC14 were cultured in DMEM-F12 with 10% FBS under standard in vitro conditions.\nLive imaging and quantification of total cell mass was performed using a Widefield plate reader, ImageXpress XL with an inbuilt temperature and CO2 controller, and a CoolSnap HQ camera (Photometrics)."}, "CC14 cells [2]": {"tested_on": "CC14 cells", "experiment": "Epithelial island morphology of CC14 cells", "assay_type": "cell-based, human", "conditions": "1 µM, 24h", "procedure": "Similar phenotypes were only observed at 10 µM of CAP1 or 5 µM of CAP3. CAP2 was thus chosen for further detailed analyses."}, "Ls174T cells": {"tested_on": "Ls174T cells", "experiment": "Clonal spheroid assay, Ls174T", "assay_type": "cell-based, human", "conditions": "Ls174T pretreated at 5µM; after three passes", "procedure": "(§1) Cells were treated with different concentrations of compounds for 16h in 2D adherent culture, washed, harvested and plated in suspension with serum-free DMEM-F12 media with B27 supplement (1:50 dilution) at 1 cell/well in 96-well format in triplicates. Plated cells were monitored to ensure the presence of single cells in each well and spheroids counted and photographed after 10 days for each round.\n(§2) To directly test for a long-lasting repression of WNT-TCF targets by CAP2 clonogenic properties of cancer stem cells were tested. DLD1 and LS174T cells were first treated with CAP2 in 2D culture in vitro followed by removal of the drug, washing with PBS, and plating under non-adherent 3D conditions for clonal spheroid growth in the absence of the drug. After primary spheroid growth, the spheroids were dissociated and replated as single cells for secondary and subsequent clonogenic spheroid formation, also in the absence of the compound of the invention. As negative control DMSO-treatment was used."}, "DLD1 cells": {"tested_on": "DLD1 cells", "experiment": "Clonal spheroid assay, DLD1", "assay_type": "cell-based, human", "conditions": "DLD1 pretreated in 2D; normalized over DMSO controls (Figure 11A)", "procedure": "as §1, §2"}, "CYCLIN D1": {"tested_on": "CYCLIN D1", "experiment": "Western blot of CYCLIN D1 in DLD1 cells", "assay_type": "cell-based, human", "conditions": "5 µM CAP2 (batch 3), vs DMSO", "procedure": "Western blot performed according to standard methods.\nThe effect of CAP2 on WNT-TCF signaling the levels of direct TCF target CYCLIN D1 were measured since it is useful to measure TCF response (Melotti et al., 2014, sura)."}, "DLD1 xenografts": {"tested_on": "DLD1 xenografts", "experiment": "DLD1 colon cancer xenograft in Nude mice", "assay_type": "in vivo", "procedure": "0.5x10^6 DLD1/ GFP^+ (cells expressing green fluorescent protein) cells were injected per flanks into 6 week-old female Nude mice (Janvier Labs). CAP2 (10mg/kg) complexed with cyclodextrine as vehicle, or vehicle alone, were injected daily intra-peritoneally (IP) once the tumors were palpable (25-50 mm^3). Tumor volumes were measured every other day with a caliper. Animals were sacrificed at the end of experiment and tumors harvested.\nCAP2 from four independent batches supplied by Analyticon Discovery was dissolved in DMSO and suspended in 45% beta-cyclodextrin. 45% beta-cyclodextrin was used as vehicle for controls. 150µl of drug or vehicle alone was administered per mouse daily.\nGFP^+ DLD1-engrafted mice were treated with cyclodextrin-conjugated CAP2 at 10mg/kg via IP […] starting at the time when tumors were palpable. […] Analyses of gene expression using human-specific primers in treated tumors (using the excised area where remnant DLD-GFP^+ cells could be found) confirmed the repression of human AXIN2, ASCL2 and LGR5 (Table 11)."}}, "data": [{"smiles": "CC1=C(C)C(=O)O[C@@H]([C@](C)(O)[C@]2(O)CC[C@@]3(O)[C@@H]4CC=C5C=CCC(=O)[C@]5(C)[C@H]4CC[C@]23C)C1", "note": "[CAP2]", "values": [{"measurement": "effect on cell growth (growth curves)", "setting": "CC14 cells [1]", "result": "growth repressive effect"}, {"measurement": "epithelial island morphology", "setting": "CC14 cells [2]", "result": "totally disrupted"}, {"measurement": "clonogenic cancer stem cells in serial spheroid assays", "setting": "Ls174T cells", "result": "exhaustion of clonogenic cancer stem cells"}, {"measurement": "primary 3D clonal spheroids", "setting": "DLD1 cells", "result": "dose-dependent decrease in primary spheroids"}, {"measurement": "level of CYCLIN D1 (Western blot)", "setting": "CYCLIN D1", "result": "decrease in the level of TCF target CYCLIN D1"}, {"measurement": "side effects", "setting": "DLD1 xenografts; DLD1 xenograft, Nude mice, 10mg/kg IP", "result": "without any visible side effects"}, {"measurement": "tumor growth", "setting": "DLD1 xenografts; DLD1 xenograft, Nude mice, cyclodextrin-conjugated CAP2 10mg/kg IP, vs cyclodextrin carrier", "result": "blockade of tumor growth"}, {"measurement": "number of regressed tumors that re-grew", "setting": "DLD1 xenografts; four DLD1 regressed tumors, 90 days following drug removal", "result": "one"}]}]}
